Results as given in ChEMBL document CHEMBL1201862, “PubChem BioAssay data set” (2004).
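A five-concentration, 48-hour dose response in 96-well plates underlies each endpoint, interpolated linearly between surrounding concentrations. GI50: concentration for 50% inhibition of growth.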 The source made the active and inactive calls. Rule as the data show it: active = GI50 up to about 1.1 µM and inactive = higher.

How the values were obtained:
Assay in all cases: DTP human tumour cell line panel, 48 h
OVCAR-3 = test system: OVCAR-3
SK-MEL-2 = test system: SK-MEL-2
SNB-19 = test system: SNB-19
SW-620 = test system: SW-620
IGROV-1 = test system: IGROV-1
M14 = test system: M14
UACC-257 = test system: UACC-257
EKVX = test system: EKVX
KM12 = test system: KM12
SNB-75 = test system: SNB-75
NCI-H460 = test system: NCI-H460
A498 = test system: A498
RXF 393 = test system: RXF 393
A549 = test system: A549
NCI-H23 = test system: NCI-H23
OVCAR-5 = test system: OVCAR-5
ACHN = test system: ACHN
MCF7 = test system: MCF7

| SMILES | GI50 (OVCAR-3) | GI50 (SK-MEL-2) | GI50 (SNB-19) | GI50 (SW-620) | GI50 (IGROV-1) | GI50 (M14) | GI50 (UACC-257) | GI50 (EKVX) | GI50 (KM12) | GI50 (SNB-75) | GI50 (NCI-H460) | GI50 (A498) | GI50 (RXF 393) | GI50 (A549) | GI50 (NCI-H23) | GI50 (OVCAR-5) | GI50 (ACHN) | GI50 (MCF7) |
| --- | --- | --- | --- | --- | --- | --- | --- | --- | --- | --- | --- | --- | --- | --- | --- | --- | --- | --- |
| O=CN/C=C/c1ccccc1 | > 100 µM (inactive) | > 100 µM (inactive) | > 100 µM (inactive) | > 51.2 µM (inactive) | > 100 µM (inactive) | > 100 µM (inactive) | > 100 µM (inactive) | > 100 µM (inactive) | > 100 µM (inactive) | > 100 µM (inactive) | > 100 µM (inactive) | > 100 µM (inactive) | > 100 µM (inactive) | > 100 µM (inactive) | > 100 µM (inactive) | > 100 µM (inactive) | > 100 µM (inactive) |  |
| COc1cccc2c1C1(O)C2CCCC12OCCCO2 (stereo not drawn) | > 100 µM (inactive) | > 100 µM (inactive) | > 100 µM (inactive) | > 100 µM (inactive) | > 100 µM (inactive) | > 100 µM (inactive) | > 100 µM (inactive) |  | > 100 µM (inactive) | > 100 µM (inactive) | > 100 µM (inactive) | > 100 µM (inactive) | > 100 µM (inactive) | > 100 µM (inactive) | > 100 µM (inactive) | > 100 µM (inactive) | > 100 µM (inactive) |  |
| Cc1nc(-n2nc(-c3ccccc3)cc2-c2ccccc2)sc1C(/C=C/c1ccc([N+](=O)[O-])cc1)=N/NC(N)=S | 38.2 µM (inactive) | 33.9 µM (inactive) | > 100 µM (inactive) | > 10 µM (inactive) | 35.2 µM (inactive) | 43 µM (inactive) | 78.3 µM (inactive) | > 100 µM (inactive) | 21.7 µM (inactive) | 20.8 µM (inactive) | 60.3 µM (inactive) | > 100 µM (inactive) | 54.1 µM (inactive) | 97.3 µM (inactive) | 27.8 µM (inactive) | 83.6 µM (inactive) | 46.1 µM (inactive) |  |
| COC(=O)C1Cc2c(n(C)c3ccccc23)C(CCC(=O)O)N1Cc1ccccc1 (stereo not drawn) | 21.1 µM (inactive) | > 100 µM (inactive) | 33.2 µM (inactive) | 40.4 µM (inactive) | 40.6 µM (inactive) | 25.5 µM (inactive) | 43.2 µM (inactive) | 46.1 µM (inactive) | 28.4 µM (inactive) | 32.5 µM (inactive) | 23.6 µM (inactive) | 15.2 µM (inactive) | 28.6 µM (inactive) | 31 µM (inactive) | 26.4 µM (inactive) | 79.3 µM (inactive) | 19.6 µM (inactive) |  |
| O=[N+]([O-])C=C1c2ccccc2-c2ccccc21 | 15.1 µM (inactive) | 21.6 µM (inactive) | 23 µM (inactive) | 16.4 µM (inactive) | > 10 µM (inactive) | 12.7 µM (inactive) | 19.1 µM (inactive) | 20.4 µM (inactive) | 17.3 µM (inactive) | 25.4 µM (inactive) | 20.1 µM (inactive) | 19.6 µM (inactive) | 17.5 µM (inactive) | 19.9 µM (inactive) | 16.8 µM (inactive) | 17.4 µM (inactive) | 16.9 µM (inactive) |  |
| CC1=NN(C(=O)c2ccc([N+](=O)[O-])cc2)C(=O)C1/N=N/c1ccccc1C(=O)O (stereo not drawn) | > 100 µM (inactive) | > 100 µM (inactive) | > 100 µM (inactive) | > 100 µM (inactive) | > 100 µM (inactive) |  | > 100 µM (inactive) | > 100 µM (inactive) | > 100 µM (inactive) | 51.2 µM (inactive) | > 100 µM (inactive) | > 100 µM (inactive) | > 100 µM (inactive) | > 100 µM (inactive) | > 100 µM (inactive) | > 100 µM (inactive) | > 100 µM (inactive) |  |
| COc1cc2c(c(OC)c1OC)-c1ccc(SC)cc1C(O)CC2 (stereo not drawn) | < 0.01 µM (active) | > 100 µM (inactive) | < 0.01 µM (active) | < 0.01 µM (active) | < 0.01 µM (active) | < 0.01 µM (active) |  | 2.54 µM (inactive) | < 0.01 µM (active) | < 0.01 µM (active) | < 0.01 µM (active) | 12.1 µM (inactive) |  | < 0.01 µM (active) | < 0.01 µM (active) | 14.6 µM (inactive) | < 0.01 µM (active) | < 0.01 µM (active) |
| O=C(O/N=C1/CCC/C1=C\c1ccccc1)c1ccc(Cl)cc1 | 36 µM (inactive) | > 100 µM (inactive) | > 100 µM (inactive) | > 100 µM (inactive) | > 46.5 µM (inactive) | > 100 µM (inactive) | > 100 µM (inactive) | > 67.3 µM (inactive) | > 100 µM (inactive) | 21.7 µM (inactive) | > 31.6 µM (inactive) | > 60.4 µM (inactive) | 18 µM (inactive) | 64 µM (inactive) | 50.8 µM (inactive) | > 100 µM (inactive) | 60.5 µM (inactive) |  |
| C/C=C1/CCC2c3[nH]c4ccccc4c3CCN2C1 (stereo not drawn) | > 100 µM (inactive) | > 100 µM (inactive) | > 100 µM (inactive) | > 100 µM (inactive) | > 100 µM (inactive) | 14.4 µM (inactive) | 64.9 µM (inactive) | > 100 µM (inactive) | > 100 µM (inactive) | 66.4 µM (inactive) | > 100 µM (inactive) | > 100 µM (inactive) | > 100 µM (inactive) | > 100 µM (inactive) | > 100 µM (inactive) | > 100 µM (inactive) | > 100 µM (inactive) |  |
| CN1c2ccccc2NC(CC(=O)O)C2CC=CN21 (stereo not drawn) | > 100 µM (inactive) | > 100 µM (inactive) | > 100 µM (inactive) | > 100 µM (inactive) | > 100 µM (inactive) | > 100 µM (inactive) | > 100 µM (inactive) | > 100 µM (inactive) | > 100 µM (inactive) | > 100 µM (inactive) | > 100 µM (inactive) | > 100 µM (inactive) | > 100 µM (inactive) | > 100 µM (inactive) | > 100 µM (inactive) | > 100 µM (inactive) | > 100 µM (inactive) |  |
| O=C(CC1(O)C(=O)Nc2ccccc21)c1ccc(O)cc1 (stereo not drawn) | > 100 µM (inactive) | > 100 µM (inactive) | > 100 µM (inactive) | > 100 µM (inactive) | > 100 µM (inactive) | > 100 µM (inactive) | > 100 µM (inactive) | > 100 µM (inactive) | > 100 µM (inactive) | 69 µM (inactive) | > 100 µM (inactive) | > 100 µM (inactive) | > 100 µM (inactive) | > 100 µM (inactive) | > 100 µM (inactive) | > 100 µM (inactive) | > 100 µM (inactive) |  |
| O=C(CC(=O)N1N=C(c2ccccc2)C(/N=N/c2ccc(C(=O)O)cc2)C1=O)Nc1ccc(F)cc1 (stereo not drawn) | 14.3 µM (inactive) | 17.9 µM (inactive) | 36.4 µM (inactive) | 59.3 µM (inactive) | 22.5 µM (inactive) | 38.8 µM (inactive) | 58.9 µM (inactive) | 30.1 µM (inactive) |  | 1.51 µM (inactive) | 28.7 µM (inactive) | 10.6 µM (inactive) | 4.01 µM (inactive) | 39.2 µM (inactive) | 23.4 µM (inactive) | 52.1 µM (inactive) | 23.6 µM (inactive) |  |
| CN(/N=C\c1ccnc2ccccc12)c1ccc([N+](=O)[O-])cc1 | > 100 µM (inactive) | > 100 µM (inactive) | > 100 µM (inactive) | 65 µM (inactive) | > 100 µM (inactive) | 97.1 µM (inactive) | > 100 µM (inactive) | > 100 µM (inactive) | 16 µM (inactive) | > 100 µM (inactive) | 5.73 µM (inactive) | > 100 µM (inactive) | > 10 µM (inactive) | > 100 µM (inactive) | > 100 µM (inactive) | > 100 µM (inactive) | > 100 µM (inactive) |  |
| O=[N+]([O-])c1nccn1COCCO |  | > 100 µM (inactive) | > 100 µM (inactive) | > 100 µM (inactive) |  | > 100 µM (inactive) | > 100 µM (inactive) |  | > 100 µM (inactive) | > 100 µM (inactive) | > 100 µM (inactive) | > 100 µM (inactive) | > 100 µM (inactive) | > 100 µM (inactive) | > 100 µM (inactive) | > 100 µM (inactive) | > 100 µM (inactive) |  |
| CCCCSC(=CC(=O)c1cccc(C(=O)C=C(SCCCC)SCCCC)n1)SCCCC | > 100 µM (inactive) | > 100 µM (inactive) | > 100 µM (inactive) | > 100 µM (inactive) | > 100 µM (inactive) | > 100 µM (inactive) | > 100 µM (inactive) | > 100 µM (inactive) | > 100 µM (inactive) | 88.9 µM (inactive) | > 100 µM (inactive) | > 100 µM (inactive) | > 100 µM (inactive) | > 100 µM (inactive) | > 100 µM (inactive) | > 100 µM (inactive) | > 100 µM (inactive) |  |
| COC(=O)c1c(C(=O)OC)c(-c2ccccc2)n(-c2ccccc2)c(=O)c1-c1ccccc1 | 51.8 µM (inactive) |  | 67.9 µM (inactive) | > 100 µM (inactive) | > 100 µM (inactive) | > 100 µM (inactive) | 71.8 µM (inactive) | > 100 µM (inactive) | > 100 µM (inactive) | 27.2 µM (inactive) | 98.6 µM (inactive) | > 100 µM (inactive) | 20.9 µM (inactive) | 80.4 µM (inactive) | 72.8 µM (inactive) | > 100 µM (inactive) |  |  |
